ChEMBL document CHEMBL4376882, “Photodynamic Therapy for ras-Driven Cancers: Targeting G-Quadruplex RNA Structures with Bifunctional Alkyl-Modified Porphyrins” (J Med Chem, 2020)
Activity calls are given as the source filed them. The rule behind the calls is not given here.

Key:
[1] = Binding affinity to NRAS RNA g-quadruplex (unknown origin) at 40 degree C by SPR analysis; type: nucleic-acid assay
Quadruplex DNA [2] = assay: Binding affinity to human KRAS utr-z RNA g-quadruplex at 40 degree C by SPR analysis; type: nucleic-acid assay
PANC-1 [3] = assay: Cytotoxicity against human PANC1 cells assessed as reduction in metabolic activity at 20 nM after 24 to 72 hrs in dark followed by photoirradiation in presence of NADH by resazurin assay; type: functional, cell-based
HEK293 = assay: Cytotoxicity against human HEK293 cells assessed as reduction in metabolic activity after 24 to 72 hrs in dark followed by photoirradiation in presence of NADH by resazurin assay; type: ADME, cell-based
MIA PaCa-2 = assay: Cytotoxicity against human MIAPaCa2 cells harboring G12C point mutation assessed as reduction in metabolic activity after 48 hrs in dark followed by photoirradiation in presence of NADH by resazurin assay; type: functional, cell-based
PANC-1 [4] = assay: Cytotoxicity against human PANC1 cells assessed as reduction in metabolic activity at 20 nM after 24 to 72 hrs in dark followed by photoirradiation in presence of NADH and NAC by resazurin assay; type: functional, cell-based
PANC-1 [5] = assay: Cytotoxicity against human PANC1 cells assessed as reduction in metabolic activity after 48 hrs in dark followed by photoirradiation in presence of NADH by resazurin assay; type: functional, cell-based; conditions: PANC-1, light or radiation study
RNA [6] = assay: Binding affinity to total RNA in human PANC1 cells assessed as increase in amount of KRAS mRNA in recovered RNA from biotin-streptavidin pulled down at 0.2 to 0.6 uM at pH 7.4 and 4 degree C using biotinylated compound by qRT-PCR analysis relative to control; type: cell-based
RNA [7] = assay: Binding affinity to total RNA in human PANC1 cells assessed as increase in amount of beta2-microglobulin mRNA in recovered RNA from biotin-streptavidin pulled down at 0.2 to 0.6 uM at pH 7.4 and 4 degree C using biotinylated compound by qRT-PCR analysis; type: cell-based
DNA [8] = assay: Binding affinity to DNA (unknown origin) strands containing 95 and 89 nucleotides in ratio of 1:2 assessed as interaction between G4 motif of 95 nucleotides and biotinylated compound at 0.2 to 0.4 uM at pH 7.4 after 1 hr by biotin-streptavidin pull-down assay; type: nucleic-acid assay
RNA [9] = assay: Binding affinity to total RNA in human PANC1 cells assessed as increase in amount of HPRT mRNA in recovered RNA from biotin-streptavidin pulled down at 0.2 to 0.6 uM at pH 7.4 and 4 degree C using biotinylated compound by qRT-PCR analysis; type: cell-based
RNA [10] = assay: Binding affinity to total RNA in human PANC1 cells assessed as increase in amount of NRAS mRNA in recovered RNA from biotin-streptavidin pulled down at 0.2 to 0.6 uM at pH 7.4 and 4 degree C using biotinylated compound by qRT-PCR analysis relative to control; type: cell-based
DNA [11] = assay: Binding affinity to DNA (unknown origin) strands containing 95 and 89 nucleotides in ratio of 1:2 assessed as presence of ssDNA when G4 motif of 95 nucleotides interact with biotinylated compound at > 0.4 uM at pH 7.4 after 1 hr by biotin-streptavidin pull-down assay; type: nucleic-acid assay
[12] = Drug uptake in mouse NIH/3T3 cells at 5 uM and 4 degree C after 16 hrs by FACS analysis relative to 37 degree C; type: ADME, cell-based; conditions: nih3t3, 16 h
[13] = Aggregation property of compound at > 40 degree C; type: physicochemical
PANC-1 [14] = assay: Induction of apoptosis in human PANC1 cells assessed as cleavage of caspase 7 when photoirradiated at 7.2 J/cm2 by Western blot analysis; type: functional, cell-based
[15] = Drug uptake in human PANC1 cells at 5 uM after 16 hrs by FACS analysis; type: ADME, cell-based; conditions: panc-1, 16 h
[16] = Drug uptake in human PANC1 cells in presence of dynamin-inhibitor dynasore; type: ADME, cell-based; conditions: panc-1
[17] = Drug localization in cytoplasm of human PANC1 cells at 5 uM after 6 hrs by Hoechst staining based confocal microscopy; type: ADME, subcellular; conditions: panc-1, 6 h
Quadruplex DNA [18] = assay: Binding affinity to human KRAS utr-z RNA g-quadruplex assessed as compound-RNA complex stoichiometry ratio of 9:1 by Job's plot analysis; type: nucleic-acid assay
Quadruplex DNA [19] = assay: Binding affinity to NRAS RNA g-quadruplex (unknown origin) by fluorescence spectroscopy; type: nucleic-acid assay
Quadruplex DNA [20] = assay: Binding affinity to human KRAS utr-c RNA g-quadruplex by fluorescence spectroscopy; type: nucleic-acid assay
PANC-1 [21] = assay: Induction of apoptosis in human PANC1 cells assessed as necrotic cells at 5 nM and photoirradiated at 7.2 J/cm2 measured after 6 to 24 hrs by annexin-V-propidium iodide staining based FACScalibur flow cytometry analysis (reference value: 3.2 %); type: functional
PANC-1 [22] = assay: Induction of apoptosis in human PANC1 cells assessed as late apoptotic cells at 15 nM and photoirradiated at 7.2 J/cm2 measured after 6 to 24 hrs by annexin-V-propidium iodide staining based FACScalibur flow cytometry analysis (reference value: 3.6 %); type: functional
PANC-1 [23] = assay: Induction of apoptosis in human PANC1 cells assessed as cleavage of caspase 3 when photoirradiated at 7.2 J/cm2 by Western blot analysis; type: functional, cell-based
PANC-1 [24] = assay: Induction of apoptosis in human PANC1 cells assessed as cleavage of PARP1 when photoirradiated at 7.2 J/cm2 by Western blot analysis; type: functional, cell-based
[25] = target: GTPase KRas (Homo sapiens) (UniProt P01116); assay: Inhibition of KRAS in human PANC1 cells assessed as downregulation of KRAS expression at 15 nM followed by 7.2 J/cm2 irradiation after 4 hrs by Western blot analysis (reference value: 5 %); type: cell-based
PANC-1 [26] = assay: Induction of apoptosis in human PANC1 cells assessed as necrotic cells at 10 nM and photoirradiated at 7.2 J/cm2 measured after 6 to 24 hrs by annexin-V-propidium iodide staining based FACScalibur flow cytometry analysis (reference value: 3.2 %); type: functional
[27] = target: GTPase KRas (Homo sapiens) (UniProt P01116); assay: Inhibition of KRAS in human PANC1 cells assessed as decrease in KRAS mRNA level at 15 nM followed by 7.2 J/cm2 irradiation after 4 hrs by qRT-PCR analysis; type: cell-based
[28] = target: GTPase NRas (Homo sapiens) (UniProt P01111); assay: Inhibition of NRAS in human PANC1 cells assessed as decrease in NRAS mRNA level at 15 nM followed by 7.2 J/cm2 irradiation after 4 hrs by qRT-PCR analysis; type: cell-based
[29] = target: GTPase NRas (Homo sapiens) (UniProt P01111); assay: Inhibition of NRAS in human PANC1 cells assessed as downregulation of NRAS expression at 15 nM followed by 7.2 J/cm2 irradiation after 4 hrs by Western blot analysis (reference value: 25 %); type: cell-based
PANC-1 [30] = assay: Induction of apoptosis in human PANC1 cells assessed as early apoptotic cells at 10 nM and photoirradiated at 7.2 J/cm2 measured after 6 to 24 hrs by annexin-V-propidium iodide staining based FACScalibur flow cytometry analysis (reference value: 7.8 %); type: functional
[31] = Drug uptake in human HEK293 cells at 5 uM and 4 degree C after 16 hrs by FACS analysis relative to 37 degree C; type: ADME, cell-based; conditions: hek293, 16 h
[32] = target: GTPase KRas (Homo sapiens) (UniProt P01116); assay: Inhibition of KRAS in human PANC1 cells assessed as downregulation of KRAS expression at 15 nM after 4 hrs by Western blot analysis; type: cell-based
[33] = Drug uptake in human PANC1 cells at 5 uM and 4 degree C after 16 hrs by FACS analysis relative to 37 degree C; type: ADME, cell-based; conditions: panc-1, 16 h
PANC-1 [34] = assay: Induction of apoptosis in human PANC1 cells assessed as viable cells at 5 nM and photoirradiated at 7.2 J/cm2 measured after 6 to 24 hrs by annexin-V-propidium iodide staining based FACScalibur flow cytometry analysis (reference value: 85.5 %); type: functional; conditions: PANC-1, light or radiation study, read-out: Activity
PANC-1 [35] = assay: Induction of apoptosis in human PANC1 cells assessed as late apoptotic cells at 5 nM and photoirradiated at 7.2 J/cm2 measured after 6 to 24 hrs by annexin-V-propidium iodide staining based FACScalibur flow cytometry analysis (reference value: 3.6 %); type: functional
PANC-1 [36] = assay: Induction of apoptosis in human PANC1 cells assessed as viable cells at 15 nM and photoirradiated at 7.2 J/cm2 measured after 6 to 24 hrs by annexin-V-propidium iodide staining based FACScalibur flow cytometry analysis (reference value: 85.5 %); type: functional; conditions: PANC-1, light or radiation study, read-out: Activity
PANC-1 [37] = assay: Induction of apoptosis in human PANC1 cells assessed as late apoptotic cells at 10 nM and photoirradiated at 7.2 J/cm2 measured after 6 to 24 hrs by annexin-V-propidium iodide staining based FACScalibur flow cytometry analysis (reference value: 3.6 %); type: functional
PANC-1 [38] = assay: Induction of apoptosis in human PANC1 cells assessed as early apoptotic cells at 15 nM and photoirradiated at 7.2 J/cm2 measured after 6 to 24 hrs by annexin-V-propidium iodide staining based FACScalibur flow cytometry analysis (reference value: 7.8 %); type: functional
PANC-1 [39] = assay: Induction of apoptosis in human PANC1 cells assessed as necrotic cells at 15 nM and photoirradiated at 7.2 J/cm2 measured after 6 to 24 hrs by annexin-V-propidium iodide staining based FACScalibur flow cytometry analysis (reference value: 3.2 %); type: functional
Quadruplex DNA [40] = assay: Binding affinity to human KRAS utr-1 RNA g-quadruplex by fluorescence spectroscopy; type: nucleic-acid assay
PANC-1 [41] = assay: Induction of apoptosis in human PANC1 cells assessed as early apoptotic cells at 5 nM and photoirradiated at 7.2 J/cm2 measured after 6 to 24 hrs by annexin-V-propidium iodide staining based FACScalibur flow cytometry analysis (reference value: 7.8 %); type: functional
PANC-1 [42] = assay: Induction of apoptosis in human PANC1 cells assessed as viable cells at 10 nM and photoirradiated at 7.2 J/cm2 measured after 6 to 24 hrs by annexin-V-propidium iodide staining based FACScalibur flow cytometry analysis (reference value: 85.5 %); type: functional; conditions: PANC-1, light or radiation study, read-out: Activity
[43] = target: GTPase NRas (Homo sapiens) (UniProt P01111); assay: Inhibition of NRAS in human PANC1 cells assessed as downregulation of NRAS expression at 15 nM after 4 hrs by Western blot analysis; type: cell-based
[44] = Drug uptake in human PANC1 cells at 5 uM after 2 hrs by FACS analysis; type: ADME, cell-based; conditions: panc-1, 2 h
Quadruplex DNA [45] = assay: Binding affinity to human KRAS utr-z RNA g-quadruplex by fluorescence spectroscopy; type: nucleic-acid assay

GTPase NRas (Homo sapiens), sequence (P01111 whole entry): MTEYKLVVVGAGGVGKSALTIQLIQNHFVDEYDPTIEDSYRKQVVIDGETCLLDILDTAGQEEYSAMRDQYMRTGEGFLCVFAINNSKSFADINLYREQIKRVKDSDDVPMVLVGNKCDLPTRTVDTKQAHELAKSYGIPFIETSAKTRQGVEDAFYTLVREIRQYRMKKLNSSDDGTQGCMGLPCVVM
GTPase KRas (Homo sapiens), sequence (P01116 whole entry, looked up): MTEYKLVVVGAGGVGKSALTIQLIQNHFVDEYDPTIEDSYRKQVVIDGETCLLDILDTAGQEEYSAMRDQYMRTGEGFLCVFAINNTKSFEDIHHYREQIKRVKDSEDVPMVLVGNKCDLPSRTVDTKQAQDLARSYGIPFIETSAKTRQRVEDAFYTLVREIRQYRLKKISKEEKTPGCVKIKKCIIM

Q: Which results are given for `CCCCCCCCCCCC[n+]1ccc(-c2c3nc(c(-c4cc[n+](C)cc4)c4ccc([nH]4)c(-c4cc[n+](C)cc4)c4nc(c(-c5cc[n+](C)cc5)c5ccc2[nH]5)C=C4)C=C3)cc1.[I-].[I-].[I-].[I-]`?
A: Kd [1]: 56 to 98 nM; Kd (Quadruplex DNA [2]): 82 to 202 nM; Activity (PANC-1 [3]): Active; Activity (HEK293): Non-Toxic; Activity (MIA PaCa-2): Active; Activity (PANC-1 [4]): inactive; EC50 (PANC-1 [5]): 13.1 nM

Q: Which fold change (FC) (RNA [6]) does the source give for `C[n+]1ccc(-c2c3nc(c(-c4cc[n+](C)cc4)c4ccc([nH]4)c(-c4cc[n+](CCCCCCCCCCCCNC(=O)CCCC[C@@H]5SC[C@@H]6NC(=O)N[C@@H]65)cc4)c4nc(c(-c5cc[n+](C)cc5)c5ccc2[nH]5)C=C4)C=C3)cc1` here?
A: 25

Q: What about the Activity (RNA [7]) of the same compound?
A: inactive

Q: What about the Activity (DNA [8]) of the same compound?
A: Active

Q: What about the Activity (RNA [9]) of the same compound?
A: inactive

Q: What about the Activity (RNA [10]) of the same compound?
A: Active

Q: And the Activity (DNA [11])?
A: Active

Q: What does the source list for `CCCCCCCCCCCCCCCCCC[n+]1ccc(-c2c3nc(c(-c4cc[n+](C)cc4)c4ccc([nH]4)c(-c4cc[n+](C)cc4)c4nc(c(-c5cc[n+](C)cc5)c5ccc2[nH]5)C=C4)C=C3)cc1.[I-].[I-].[I-].[I-]`?
A: Kd [1]: 56 to 98 nM; Drug uptake [12]: Active; Activity [13]: Active; Activity (PANC-1 [14]): Active; Drug uptake [15]: Active; Drug uptake [16]: Not Active; Drug uptake [17]: Active; Activity (Quadruplex DNA [18]): Active; Kd (Quadruplex DNA [19]): 32 nM; Kd (Quadruplex DNA [20]): 188 nM; Kd (Quadruplex DNA [2]): 82 to 202 nM; Activity (PANC-1 [21]): 2.1%; Activity (PANC-1 [22]): 15.63%; Activity (PANC-1 [23]): Active; Activity (PANC-1 [24]): Active; inhibition [25]: 20%; Activity (PANC-1 [3]): Active; Activity (PANC-1 [26]): 4.03%; Activity (HEK293): Non-Toxic; inhibition [27]: Active; inhibition [28]: Active; inhibition [29]: 50%; Activity (PANC-1 [30]): 3.03%; Drug uptake [31]: Active; inhibition [32]: inactive; Drug uptake [33]: 47%; Activity (MIA PaCa-2): Active; Activity (PANC-1 [4]): inactive; viability at 0.005 µM (PANC-1 [34]): 78.2%; Activity (PANC-1 [35]): 12.4%; viability at 0.015 µM (PANC-1 [36]): 75.1%; Activity (PANC-1 [37]): 11.43%; Activity (PANC-1 [38]): 3.53%; Activity (PANC-1 [39]): 5.77%; Kd (Quadruplex DNA [40]): 150 nM; Activity (PANC-1 [41]): 7.35%; viability at 0.01 µM (PANC-1 [42]): 81.5%; inhibition [43]: inactive; EC50 (PANC-1 [5]): 16.4 nM; Drug uptake [44]: Active; Kd (Quadruplex DNA [45]): 99 nM
